Data taken from ChEMBL document CHEMBL1149445, “Isolation, synthesis, and anti-tumor activities of a novel class of podocarpic diterpenes” (Bioorg Med Chem Lett, 2006).
≈ marks a conversion by molar mass, not a printed value.

Columns and labels:
Format in all cases: functional, cell-based
MCF7 = assay: Antitumor activity against human breast adenocarcinoma MCF7 cell line
A549 = assay: Antitumor activity against human lung adenocarcinoma A549 cell line
CNE = assay: Antitumor activity against human nasopharyngeal carcinoma CNE cell line
HeLa = assay: Antitumor activity against human cervical carcinoma HeLa cell line
[1] = Homo sapiens, MCF7, read-out: IC50
[2] = Homo sapiens, A549, read-out: IC50
[3] = Homo sapiens, CNE, read-out: IC50
[4] = Homo sapiens, HeLa, read-out: IC50

IC50 (CNE; [3]) [µg/mL] | Compound | IC50 (MCF7; [1]) [µg/mL] | IC50 (A549; [2]) [µg/mL] | IC50 (HeLa; [4]) [µg/mL] | IC50 (MCF7; mcf7) [µg/mL] | IC50 (A549; a549) [µg/mL] | IC50 (CNE; cne) [µg/mL] | IC50 (HeLa; hela) [µg/mL]
32.9 (≈ 83.2 µM) | CC1(C)CCC[C@]2(C)c3cc(OCc4cccc([N+](=O)[O-])c4)c(O)cc3CC[C@H]12 | > 50 | 36.4 (≈ 92 µM) | > 50 | – | – | – | –
5.6 (≈ 17.7 µM) | COc1cc2c(cc1OC)[C@@]1(C)CCCC(C)(C)[C@H]1C(=O)C2=O | 16.5 (≈ 52.1 µM) | 33.8 (≈ 107 µM) | 16.1 (≈ 50.9 µM) | – | – | – | –
> 50 | COc1cc2c(cc1OC)[C@@]1(C)CCCC(C)(C)[C@@H]1CC2=O | > 50 | > 50 | 25.7 (≈ 85 µM) | – | – | – | –
> 50 | CC1(C)CCC[C@]2(C)c3cc(OCc4ccccc4F)c(O)cc3CC[C@@H]12 | > 50 | > 50 | > 50 | – | – | – | –
7.2 (≈ 19.5 µM) | CC1(C)CCC[C@]2(C)c3cc(OCc4ccccc4F)c(O)cc3CC[C@H]12 | 12.4 (≈ 33.7 µM) | 13.7 (≈ 37.2 µM) | 15.3 (≈ 41.5 µM) | – | – | – | –
– | CC1(C)CCC[C@]2(C)c3cc(O)c(O)cc3CC[C@@H]12 (stereo in doubt) | – | – | – | 36.5 (≈ 140 µM) | 36.1 (≈ 139 µM) | 12.1 (≈ 46.5 µM) | 42 (≈ 161 µM)
27.2 (≈ 70.7 µM) | CC1(C)CCC[C@]2(C)c3cc(OCc4ccc(Cl)cc4)c(O)cc3CC[C@H]12 | > 50 | 46.9 (≈ 122 µM) | 42.2 (≈ 110 µM) | – | – | – | –
> 50 | CC1(C)CCC[C@]2(C)c3cc(OCc4cccc([N+](=O)[O-])c4)c(O)cc3CC[C@@H]12 | > 50 | > 50 | > 50 | – | – | – | –
– | CISPLATIN | – | – | – | 6.53 | 3.58 | 2.34 | 5.89
– | CC1(C)CCC[C@]2(C)c3cc(O)c(O)cc3CC[C@@H]12 (stereo in doubt; 1) | 41.2 (≈ 158 µM) | 19.6 (≈ 75.3 µM) | 24.3 (≈ 93.3 µM) | – | – | 25.1 (≈ 96.4 µM) | –
> 50 | CC1(C)CCC[C@]2(C)c3cc(OCc4ccc(Cl)cc4)c(O)cc3CC[C@@H]12 | > 50 | > 50 | > 50 | – | – | – | –
3.1 (≈ 10.3 µM) | COc1cc2c(cc1OC)[C@@]1(C)CCCC(C)(C)[C@H]1CC2=O | 7.8 (≈ 25.8 µM) | 26.3 (≈ 87 µM) | 12.7 (≈ 42 µM) | – | – | – | –
4.5 (≈ 15.6 µM) | COc1cc2c(cc1OC)[C@@]1(C)CCCC(C)(C)[C@H]1CC2 | 10.9 (≈ 37.8 µM) | 9.6 (≈ 33.3 µM) | 13.2 (≈ 45.8 µM) | – | – | – | –
25.1 (≈ 87 µM) | COc1cc2c(cc1OC)[C@@]1(C)CCCC(C)(C)[C@@H]1CC2 | 39.5 (≈ 137 µM) | 41.7 (≈ 145 µM) | 41.5 (≈ 144 µM) | – | – | – | –

Compound | IC50 (CNE; [3]) [µg/mL] | IC50 (MCF7; [1]) [µg/mL] | IC50 (A549; [2]) [µg/mL] | IC50 (HeLa; [4]) [µg/mL] | IC50 (MCF7; mcf7) [µg/mL] | IC50 (A549; a549) [µg/mL] | IC50 (CNE; cne) [µg/mL] | IC50 (HeLa; hela) [µg/mL]
CC1(C)CCC[C@]2(C)c3cc(O)c(OCc4ccccc4F)cc3CC[C@@H]12 | > 50 | > 50 | > 50 | > 50 | – | – | – | –
CC1(C)CCC[C@]2(C)c3cc(O)c(OCc4ccccc4F)cc3CC[C@H]12 | 17.8 (≈ 48.3 µM) | 42.9 (≈ 116 µM) | 35 (≈ 95 µM) | 13.4 (≈ 36.4 µM) | – | – | – | –
CC1(C)CCC[C@]2(C)c3cc(O)c(O)cc3C(=O)C[C@@H]12 | 22.1 (≈ 80.6 µM) | > 50 | > 50 | 27.7 (≈ 101 µM) | – | – | – | –
CC1(C)CCC[C@]2(C)c3cc(O)c(OCc4cccc([N+](=O)[O-])c4)cc3CC[C@H]12 | > 50 | > 50 | > 50 | 18.6 (≈ 47 µM) | – | – | – | –
CC1(C)CCC[C@]2(C)c3cc(O)c(O)cc3C(=O)C(=O)[C@H]12 | 9.1 (≈ 31.6 µM) | 24.8 (≈ 86 µM) | 25.8 (≈ 89.5 µM) | 18 (≈ 62.4 µM) | – | – | – | –
CC1(C)CCC[C@]2(C)c3cc(O)c(OCc4ccc(Cl)cc4)cc3CC[C@@H]12 | > 50 | > 50 | > 50 | > 50 | – | – | – | –
CC1(C)CCC[C@]2(C)c3cc(O)c(OCc4cccc([N+](=O)[O-])c4)cc3CC[C@@H]12 | > 50 | > 50 | > 50 | > 50 | – | – | – | –
CC1(C)CCC[C@]2(C)c3cc(O)c(OCc4ccc(Cl)cc4)cc3CC[C@H]12 | > 50 | > 50 | > 50 | > 50 | – | – | – | –
CC1(C)CCC[C@]2(C)c3cc(O)c(O)cc3CC[C@H]12 | 3.6 (≈ 13.8 µM) | 9.6 (≈ 36.9 µM) | 5.7 (≈ 21.9 µM) | 10.9 (≈ 41.9 µM) | – | – | – | –
CC1(C)CCC[C@]2(C)c3cc(O)c(O)cc3C(=O)C[C@H]12 | 13.5 (≈ 49.2 µM) | 36.2 (≈ 132 µM) | > 50 | 17.6 (≈ 64.1 µM) | – | – | – | –
